In US7960397B2, “6,9-disubstituted purine derivatives and their use as cosmetics and cosmetic compositions” (Institute of Experimental Botany, Academy of Sciences of …, priority 2007, dated 2011):
Where two headings read alike, the source gives them in different places.

Tests used:
[1] = tested on: promyelocytic HL-60 leukemia; experiment: In vitro cytotoxicity, Calcein AM assay; conditions: read-out: GI50 HL60
Procedure: (§2) Because only metabolically active cells cleave Calcein AM, these assays detect viable cells exclusively. The quantity of reduced Calcein AM corresponds to the number of vital cells in the culture.
(§3) The cells were maintained in Nunc/Corning 80 cm^2 plastic tissue culture flasks and cultured in cell culture medium (DMEM with 5 g/l glucose, 2 mM glutamine, 100 U/ml penicillin, 100 mg/ml streptomycin, 10% fetal calf serum and sodium bicarbonate).
(§4) The cell suspensions that were prepared and diluted according to the particular cell type and the expected target cell density (2,500-30,000 cells per well based on cell growth characteristics) were added by pipette (80 ml) into 96-well microtiter plates. Inoculates were allowed a pre-incubation period of 24 hours at 37° C. and 5% CO2 for stabilization. Four-fold dilutions of the intended test concentration were added at time zero in 20 ml aliquots to the microtiter plate wells. Usually, the compound tested was evaluated at six 4-fold dilutions. […] All drug concentrations were examined in duplicate. Incubations of cells with the tested compounds lasted for 72 hours at 37° C., in a 5% CO2 atmosphere and 100% humidity. At the end of the incubation period, the cells were assayed by using Calcein AM. Ten microliters of the stock solution were pipetted into each well and incubated for 1 hour. Fluorescence (FD) was measured with the Labsystem FIA Reader Fluoroscan Ascent (UK).

[2] = tested on: breast carcinoma cell line MCF-7; experiment: In vitro cytotoxicity, Calcein AM assay; conditions: read-out: GI50 MCF7
Procedure: as §2, §3, §4

mouse fibroblasts NIH3T3 = experiment: In vitro cytotoxicity, Calcein AM assay; conditions: read-out: GI50 NIH-3T3
Procedure: as §2, §3, §4

human osteosarcoma HOS = experiment: In vitro cytotoxicity, Calcein AM assay; conditions: read-out: GI50 HOS
Procedure: as §2, §3, §4

[3] = tested on: cytokinin-dependent tobacco callus Nicotiana tabacum L. cv. Wisconsin 38; experiment: Cytokinin activity in tobacco callus bioassay; assay type: cell-based; conditions: for concentration with highest activity: growth of tobacco callus, four weeks of cultivation, tested 10^−8 M to 10^−4 M; for Activity (%) [10^−5 mol · l^−1 BAP = 100%]: increase of fresh callus weight at the concentration with highest activity, 10^−5 M BAP = 100%
Procedure: Estimation of cytokinin biological activity of novel compounds in callus bioassay. Cytokinin-dependent tobacco callus Nicotiana tabacum L. cv. […] Subcultivation was carried out every three weeks. Fourteen days before the bioassay, the callus tissue was transferred to the media without the compound tested. The biological activity was determined from the increase of the fresh callus weight after four weeks of cultivation. Five replicates were prepared for each concentration of the compound tested and the entire test was repeated twice. […] The relative activity of the compound at this concentration was calculated (Table 8). […] The compounds to be tested were dissolved in dimethylsulfoxide (DMSO) and the solution brought up to 10^−3 M with distilled water. This stock solution was further diluted with the respective media used for the biotest to a concentration ranging from 10^−8 M to 10^−4 M.

[4] = tested on: Amaranthus caudatus cotyledon/hypocotyl explants; experiment: Amaranthus bioassay (betacyanin content); design: species or system Amaranthus caudatus var. atropurpurea; conditions: for concentration with highest activity: betacyanin content after 48 h incubation, tested 10^−8 M to 10^−4 M; for Activity (%) [10^−5 mol · l^−1 BAP = 100%]: betacyanin content at the concentration with highest activity, 10^−5 M BAP = 100%
Procedure: Testing of novel compounds for typical cytokinin activity in Amaranthus bioassay. A standard Amaranthus bioassay was performed with several modifications. The seeds of Amaranthus caudatus var. atropurpurea were surface-sterilized in 10% (w/v) N-chlorobenzenesulfonamide for 10 min and washed 5 times with deionized water. They were placed in 14 cm Petri dishes containing paper tissues saturated with deionized water. After 72 h of cultivation at 25° C. in darkness, the roots of the seedlings were cut off. The explants, consisting of two cotyledons and hypocotyls, were placed in 5 cm Petri dishes onto two layers of filter paper soaked with 1 ml of the incubation medium containing 10 mmol of NA2HPO4—KH2PO4, pH 6.8, 5 mmol of tyrosine and the compound to be tested. There were 20 explants per dish. The procedure was carried out under a green safe light in a darkroom. […] The concentration of betacyanin was determined from the absorbencies at 537 nm and 620 nm as follows: DA=A537 nm−A620 nm. […] Relative activity of the compound at this concentration was calculated. The activity obtained for 10^−5 M 6-benzylaminopurine (BAP) was defined as 100%.
(§1) The compounds to be tested were dissolved in dimethylsulfoxide (DMSO) and the solution brought up to 10^−3 M with distilled water.

excised wheat leaf tips = experiment: Antisenescence test, retention of chlorophyll in excised wheat leaf tips; design: species or system Triticum aestivum cv. Hereward; conditions: for activity (%) [10^−4 mol · l^−1 BAP = 100%]: retention of chlorophyll in excised wheat leaf tips at the concentration with highest activity, 10 replicate determinations; for concentration with highest activity: retention of chlorophyll in excised wheat leaf tips, tested range 10^−8 M to 10^−4 M, 96 h in the dark at 25° C.
Procedure: Testing of antisenescence properties of novel cytokinin compounds on wheat leaf segments. Seeds of winter wheat, Triticum aestivum cv. Hereward, were washed under running water for 24 hours and then sown on vermiculite soaked with the Knop's solution. They were placed in the grow chamber at 25° C. with a 16 h-8 h light period at 50 mmol.m^−2.s^−1. After 7 days, the first leaf was fully developed and the second leaf had started to grow. A 35 mm long tip section of the first leaf, was removed from each of 5 seedlings and trimmed slightly to a combined weight of 100 mg. The basal ends of the five leaf tips were placed in the wells of a microtiter polystyrene plate containing […] of the solution of the tested compound each. The entire plate was inserted into a plastic box lined with paper tissues soaked with distilled water to prevent leaf sections from drying out. After 96 h incubation in the dark at 25° C., the leaves were removed and chlorophyll was extracted by heating at 80° C. for 10 min in 5 ml of 80% ethanol (v/v). The sample volume was then restored to 5 ml by the addition of 80% ethanol (v/v). The absorbance of the extract was recorded at 665 nm. In addition, chlorophyll extracts from fresh leaves and leaf tips incubated in deionized water were measured. […] Relative activity of the compound at this concentration was calculated (Table 7). The activity obtained for 10^−4 M 6-benzylaminopurine (BAP) was defined as 100%. The values shown are means of five replicates and the whole experiment was repeated twice.
as §1

[5] = tested on: human diploid fibroblasts (HCA cells, HCA20, HCA40, HCA60); experiment: Senescent cells (β-galactosidase staining) in culture of human fibroblasts; assay type: cell-based; conditions: for SENESCENT CELLS (%) HCA20: human fibroblasts passage 20 (HCA20); for SENESCENT CELLS (%) HCA40: human fibroblasts passage 40 (HCA40); for SENESCENT CELLS (%) HCA60: human fibroblasts passage 60 (HCA60)
Procedure: In this example, human diploid fibroblasts (HCA cells of various passage levels: passage 20—designated HCA20; passage 40—designated HCA40; passage 60—designated HCA60) were stained for β-galactosidase activity. The medium used for the cell cultivation was removed, the cells were washed twice in […], and fixed in 2-3 ml of fixing solution comprised of a 2% formaldehyde and 0.2% glutaraldehyde in PBS. The cells were incubated at room temperature for 5 minutes, and then washed twice with PBS. The cells were subsequently incubated at 37° C.

[6] = tested on: Human T-lymphoblastic leukemia cell line CEM; experiment: In vitro cytotoxicity, Calcein AM assay; conditions: Homo sapiens, 72 h, read-out: GI50 CEM
Procedure: as §2, §3, §4

Row | SMILES | GI50 ([1]; HL60, 72 hours, Calcein AM) | GI50 ([2]; MCF7, 72 hours, Calcein AM) | GI50 (mouse fibroblasts NIH3T3; NIH-3T3, 72 hours, Calcein AM) | GI50 (human osteosarcoma HOS; HOS, 72 hours, Calcein AM) | concentration with highest activity [3] | Activity (%) [10^−5 mol · l^−1 BAP = 100%] [3] | concentration with highest activity [4] | Activity (%) [10^−5 mol · l^−1 BAP = 100%] [4] | activity (%) [10^−4 mol · l^−1 BAP = 100%] (excised wheat leaf tips) | concentration with highest activity (excised wheat leaf tips) | SENESCENT CELLS (%) HCA20 [5] | SENESCENT CELLS (%) HCA40 [5] | SENESCENT CELLS (%) HCA60 [5] | GI50 ([1]; Homo sapiens, HL-60, 72 h) | GI50 ([2]; Homo sapiens, MCF7, 72 h) | GI50 (mouse fibroblasts NIH3T3; Mus musculus, NIH3T3, 72 h) | GI50 (human osteosarcoma HOS; Homo sapiens, 72 h) | GI50 [6]
1 | CCOCCn1cnc2c(NCc3ccc(O)cc3)ncnc21 [Compound 133, 6-(4-hydroxybenzylamine)-9-(1-ethoxyeth-2-yl)purine] | > 167 µM | > 167 µM | > 167 µM | > 167 µM |  |  |  |  |  |  |  |  |  |  |  |  |  | 
2 | Oc1ccc(CNc2ncnc3c2ncn3C2CCCO2)cc1 (stereo not drawn) [6-(4-hydroxybenzylamino)-9-(tetrahydrofuran-2-yl)-purine] |  |  |  |  | 10^−5 mol · l^−1 | 27% | 10^−4 mol · l^−1 | 13% | 3% | 10^−4 mol · l^−1 | 5% | 5% | 16% | > 167 µM | > 167 µM | > 167 µM | > 167 µM | 
3 | C/C(=C\CNc1ncnc2c1ncn2CCCCCl)CO | > 167 µM | > 167 µM | > 167 µM | > 167 µM | 10^−4 mol · l^−1 | 103.5% | 10^−4 mol · l^−1 | 123.8% | 73.8% | 10^−4 mol · l^−1 |  |  |  |  |  |  |  | 
4 | C/C(=C\CNc1ncnc2nc[nH]c12)CO [6-((E)-4-hydroxy-3-methylbut-2-enylamino)purine, reference compound] |  |  |  |  |  | 86.9% |  | 116% | 28.3% |  |  |  |  | > 167 µM | > 167 µM | > 167 µM | > 167 µM | > 167 µM
5 | Oc1ccc(CNc2ncnc3c2ncn3CCCCCl)cc1 [4-hydroxybenzylamino / 4-chlorobutyl, 6-(4-hydroxybenzylamine)-9-(4-chlorobutyl)purine] | > 167 µM | > 167 µM | > 167 µM | > 167 µM |  |  | 10^−4 mol · l^−1 | 33.4% | 33.4% | 10^−4 mol · l^−1 |  |  |  |  |  |  |  | 
6 | COc1ccc(CNc2ncnc3c2ncn3C2CCCCO2)cc1O (stereo not drawn) | > 167 µM | > 167 µM | > 167 µM | > 167 µM | 10^−6 mol · l^−1 | 55% | 10^−4 mol · l^−1 | 41% | 47% | 10^−4 mol · l^−1 | 5% | 7% | 29% |  |  |  |  | 
7 | C/C(=C\CNc1ncnc2c1ncn2C1CCCO1)CO (stereo not drawn) | > 167 µM | > 167 µM | > 167 µM | > 167 µM | 10^−5 mol · l^−1 | 89% | 10^−4 mol · l^−1 | 117% | 45% | 10^−4 mol · l^−1 |  |  |  |  |  |  |  | 
8 | CCOC(C)n1cnc2c(NC/C=C(\C)CO)ncnc21 (stereo not drawn) | > 167 µM | > 167 µM | > 167 µM | > 167 µM | 10^−4 mol · l^−1 | 102.8% | 10^−4 mol · l^−1 | 92.5% | 92.5% | 10^−4 mol · l^−1 |  |  |  |  |  |  |  | 
9 | COc1cc(CNc2ncnc3c2ncn3C2CCCCO2)cc(OC)c1O (stereo not drawn) |  |  |  |  | 10^−5 mol · l^−1 | 39% | 10^−4 mol · l^−1 | 8% | 42% | 10^−4 mol · l^−1 | 4% | 5% | 17% |  |  |  |  | 
10 | Cc1cc(Nc2ncnc3c2ncn3C2CCCCO2)ccc1O (stereo not drawn) [4-hydroxy-5-methylanilino / tetrahydropyran-2-yl] | > 167 µM | > 167 µM | > 167 µM | > 167 µM | 10^−5 mol · l^−1 | 10% | 10^−4 mol · l^−1 | 17% | 10% | 10^−4 mol · l^−1 | 4% | 4% | 18% |  |  |  |  | 
11 | Cc1cc(Nc2ncnc3c2ncn3C2CCCCO2)ccc1O (stereo not drawn) [4-hydroxy-3-methylanilino / tetrahydropyran-2-yl] | > 167 µM | > 167 µM | > 167 µM | > 167 µM | 10^−5 mol · l^−1 | 12% | 10^−4 mol · l^−1 | 15% | 7% | 10^−4 mol · l^−1 | 3% | 4% | 19% |  |  |  |  | 
12 | Oc1ccccc1CNc1ncnc2c1ncn2C1CCCO1 (stereo not drawn) [6-(2-hydroxybenzylamino)-9-(tetrahydrofuran-2-yl)-purine] |  |  |  |  | 10^−5 mol · l^−1 | 78% | 10^−4 mol · l^−1 | 33% | 26% | 10^−4 mol · l^−1 | 4% | 2% | 26% |  |  |  |  | 
